Columns and labels:
[1] = Lipophilicity, logP of compound; format: physicochemical; conditions: octanol/water
[2] = target: T1, Bcl-2-like protein 11/Bcl-2-related protein A1 (Homo sapiens, UniProt O43521+Q16548); assay: Inhibition of Bfl-1/Bim (unknown origin) by fluorescence polarization assay; format: protein-complex assay
[3] = target: T1, Bcl-2-like protein 11/Bcl-2-related protein A1; assay: Inhibition of Bfl-1/Bim (unknown origin) assessed as inhibition constant by fluorescence polarization assay; format: protein-complex assay
[4] = target: T1, Bcl-2-like protein 11/Bcl-2-related protein A1; assay: Inhibition of Bfl-1/Bim (unknown origin) incubated for 30 mins by TR-FRET assay; format: protein-complex assay
[5] = target: T2, Apoptosis regulator Bcl-2 (Homo sapiens, UniProt P10415); assay: Inhibition of Bcl-2 (unknown origin) by fluorescence polarization assay
T2 sequence (P10415 whole entry): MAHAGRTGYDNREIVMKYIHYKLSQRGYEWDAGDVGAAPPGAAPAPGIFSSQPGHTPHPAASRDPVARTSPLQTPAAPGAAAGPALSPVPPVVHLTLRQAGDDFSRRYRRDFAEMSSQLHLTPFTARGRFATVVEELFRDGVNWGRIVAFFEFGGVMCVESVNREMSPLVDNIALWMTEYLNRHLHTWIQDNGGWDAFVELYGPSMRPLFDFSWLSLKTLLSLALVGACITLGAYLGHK

Bcl-2-related protein A1 [6] = target: T3, Bcl-2-related protein A1 (Homo sapiens, UniProt Q16548); assay: Inhibition of Bfl-1 (unknown origin) by fluorescence polarization assay
T3 sequence (Q16548 whole entry): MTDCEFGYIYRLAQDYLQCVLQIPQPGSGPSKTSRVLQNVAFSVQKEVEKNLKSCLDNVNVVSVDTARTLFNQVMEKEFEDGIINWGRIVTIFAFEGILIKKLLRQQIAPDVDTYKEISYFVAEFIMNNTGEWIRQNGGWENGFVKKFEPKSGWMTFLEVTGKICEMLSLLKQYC

[7] = target: T2, Apoptosis regulator Bcl-2; assay: Displacement of fluorescein tagged BID BH3 peptide from GST-tagged recombinant Bcl-2 (unknown origin) by fluorescence polarization-based competitive binding assay
[8] = target: Induced myeloid leukemia cell differentiation protein Mcl-1 (Homo sapiens) (UniProt Q07820); assay: Displacement of fluorescein tagged BID BH3 peptide from GST-tagged recombinant Mcl-1 (unknown origin) by fluorescence polarization-based competitive binding assay
Sequence of Induced myeloid leukemia cell differentiation protein Mcl-1 (Homo sapiens) (Q07820 whole entry): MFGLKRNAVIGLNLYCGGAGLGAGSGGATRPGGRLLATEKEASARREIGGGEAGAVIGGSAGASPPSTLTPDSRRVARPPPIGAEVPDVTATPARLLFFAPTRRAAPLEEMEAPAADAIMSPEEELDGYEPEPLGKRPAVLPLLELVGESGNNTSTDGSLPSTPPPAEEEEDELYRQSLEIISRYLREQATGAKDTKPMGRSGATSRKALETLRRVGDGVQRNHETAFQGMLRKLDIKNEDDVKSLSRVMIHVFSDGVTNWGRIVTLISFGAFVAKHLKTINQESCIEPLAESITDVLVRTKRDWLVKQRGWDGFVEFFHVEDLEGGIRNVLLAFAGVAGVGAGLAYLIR

Bcl-2-related protein A1 [9] = target: T3, Bcl-2-related protein A1; assay: Displacement of fluorescent-labeled BID-BH3 peptide from His-tagged BFL-1 (unknown origin)

T1 sequence (O43521 whole entry, one chain of several): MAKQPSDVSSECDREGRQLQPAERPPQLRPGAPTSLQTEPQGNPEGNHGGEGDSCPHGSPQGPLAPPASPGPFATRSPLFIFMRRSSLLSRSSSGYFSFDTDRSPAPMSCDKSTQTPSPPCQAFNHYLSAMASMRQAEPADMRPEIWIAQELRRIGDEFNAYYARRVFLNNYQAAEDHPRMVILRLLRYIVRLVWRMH

## COc1ccc(C(c2c(-c3ccccc3)n(O)c3ccccc23)N2CCN(C)CC2)cc1 (stereo not given)
[1]
  logP: 4
[2]
  IC50: 800 nM
[3]
  Ki: 400 nM
[4]
  IC50: 1400 nM

## CC1=C(C2=C(C)C(=O)c3c(cc(O)c(O)c3Cc3ccccc3)C2=O)C(=O)c2cc(O)c(O)c(Cc3ccccc3)c2C1=O
[5]
  IC50: 1300 nM

## CSc1ccc(C(Nc2ccccn2)c2c(C)[nH]c3ccccc23)cc1 (stereo not given)
[1]
  logP: 4
[2]
  IC50: 6300 nM
[3]
  Ki: 2900 nM
[4]
  IC50: 2500 nM

## CCOc1ccc(N2C(=O)/C(=C/C=C/c3ccccc3)C(=O)NC2=S)cc1
Bcl-2-related protein A1 [6]
  IC50: 1300 nM

## CC(C)=CCC[C@]1(C)C=Cc2c(O)c3c(c(CC=C(C)C)c2O1)O[C@]12C(=C[C@@H]4C[C@H]1C(C)(C)O[C@@]2(C/C=C(/C)C(=O)O)C4=O)C3=O [GAMBOGIC ACID]
[7]
  IC5: 1.21 µM
[5]
  IC50: 122 nM
[8]
  IC5: 0.79 µM

## O=C1NC(=S)N(c2cccc(Br)c2)C(=O)/C1=C/C=C/c1ccccc1
Bcl-2-related protein A1 [6]
  IC50: 1600 nM

## CC(=O)N[C@@H](Cc1c[nH]c2ccccc12)C(=O)NCCSSCCN(C)C
Bcl-2-related protein A1 [9]
  EC50: 23 nM
